Experimental data taken from patent publication US20110190365A1, “Insecticidal 4-phenyl-1H-pyrazoles” (Bayer Crop Science AG, priority 2008, published 2011).

Test: log P by HPLC on a reversed-phase column (C18), EEC Directive 79/831 Annex V.A8
Assay type: physicochemical
Method: The stated log P values were determined in accordance with EEC Directive 79/831 Annex V.A8 by HPLC (High Performance Liquid Chromatography) using a reversed-phase column (C18).

[1] = HCOOH, Table 4, compounds of formula I-A-Q4
[2] = HPLC, reversed-phase C18, mobile phase with formic acid

Structure (SMILES)	log P (HCOOH) (HCOOH)	other results
COC(=O)c1ccc(-n2nc(C(F)(F)F)c(-c3cc(Cl)cc(Cl)c3)c2N)cc1C(F)(F)F [I-A-Q4-112]		log P (HCOOH) [1]: I-A-Q4-112: log P (HCOOH): 5.21
Cc1cc(-n2nc(C(F)(F)F)c(-c3cc(Cl)cc(Cl)c3)c2N)ccc1C(=O)NCc1cccc(Br)n1 [I-A-Q2-253]	I-A-Q2-253: log P (HCOOH): 4.40	
Cc1cc(-n2nc(C(F)(F)F)c(-c3cc(Cl)cc(Cl)c3)c2N)ccc1C(=O)NC(C)c1nccc2ccccc12 (centres unmarked) [I-A-Q2-256]	I-A-Q2-256: log P (HCOOH): 4.64	
Nc1c(-c2ccc(Cl)c(F)c2)c(C(F)(F)F)nn1-c1ccc(Cl)cn1 [I-A-Q4-048]		log P (HCOOH) [1]: I-A-Q4-048: log P (HCOOH): 5.02
Cc1cc(-n2nc(C(F)(F)F)c(-c3cc(Cl)cc(Cl)c3)c2N)ccc1C(=O)NC(C)c1ccc(Cl)cc1 (centres unmarked) [I-A-Q2-213]	I-A-Q2-213: log P (HCOOH): 4.89	
Cc1cc(-n2nc(C(F)(F)F)c(-c3ccc(C#N)cc3)c2N)ccc1C(=O)NCc1ccccn1 [I-A-Q2-349]	I-A-Q2-349: log P (HCOOH): 2.04	
Cc1cc(C)cc(-c2c(C(F)(F)F)nn(-c3ccc(C(=O)NCc4ccccn4)cc3)c2N)c1 [I-A-Q2-180]	I-A-Q2-180: log P (HCOOH): 2.61	
Nc1c(-c2cc(Cl)cc(C(F)(F)F)c2)c(C(F)(F)Cl)nn1-c1ccc(Cl)cn1 [I-A-Q4-059]		log P (HCOOH) [1]: I-A-Q4-059: log P (HCOOH): 5.81
Cc1cc(-n2nc(C3CC3)c(-c3ccc(Cl)cc3)c2N)ccc1C(=O)NCc1ccccn1 [I-A-Q2-381]	I-A-Q2-381: log P (HCOOH): 2.46	
Cc1cc(-n2nc(C(F)(F)F)c(-c3cccc(F)c3)c2N)ccc1C(=O)NCc1ccccn1 [I-A-Q2-354]	I-A-Q2-354: log P (HCOOH): 2.31	
Nc1c(-c2cccc(F)c2)c(C(F)(F)F)nn1-c1ccc(C(=O)NCc2ccccn2)cc1 [I-A-Q2-185]	I-A-Q2-185: log P (HCOOH): 2.14	
Cc1cc(-n2nc(C(F)(F)F)c(-c3cc(Cl)cc(Cl)c3)c2N)ccc1C(=O)NCc1ccc([N+](=O)[O-])cc1 [I-A-Q2-249]	I-A-Q2-249: log P (HCOOH): 4.28	
Cc1cc(-n2nc(C(F)(F)F)c(-c3cc(Cl)cc(Cl)c3)c2N)ccc1C(=O)NCc1cc(-c2ccccc2)ccn1 [I-A-Q2-206]	I-A-Q2-206: log P (HCOOH): 4.29	
Nc1c(-c2cc(Cl)cc(Cl)c2)c(C(F)(F)F)nn1-c1ccc(C(=O)NCC2CC2)cc1 [I-A-Q2-149]	I-A-Q2-149: log P (HCOOH): 4.15	
Cc1cc(-n2nc(-c3ccccc3)c(-c3ccc(Cl)cc3)c2N)ccc1C(=O)NCc1ccccn1 [I-A-Q2-377]	I-A-Q2-377: log P (HCOOH): 2.80	
Cc1cc(-n2nc(C(F)(F)F)c(-c3cc(Cl)cc(Cl)c3)c2N)ccc1C(=O)NCc1cccc(Cl)c1 [I-A-Q2-215]	I-A-Q2-215: log P (HCOOH): 4.76	
CC(C)NC(=O)c1ccc(-n2nc(C(F)(F)F)c(-c3ccc(Br)cc3)c2N)cc1 [I-A-Q2-187]	I-A-Q2-187: log P (HCOOH): 3.42	
COc1ccc(-c2c(C)nn(-c3ccc(Cl)cn3)c2N)cc1 [I-A-Q4-061]		log P (HCOOH) [1]: I-A-Q4-061: log P (HCOOH): 3.58
Cc1cc(-n2nc(C(F)(F)F)c(-c3cc(Cl)cc(Cl)c3)c2N)ccc1C(=O)NCc1ccncn1 [I-A-Q2-260]	I-A-Q2-260: log P (HCOOH): 3.33	
Cc1cc(-n2nc(C(F)(F)F)c(-c3cc(Cl)cc(Cl)c3)c2N)ccc1C(=O)NC1CCS(=O)(=O)C1 (centres unmarked) [I-A-Q2-218]	I-A-Q2-218: log P (HCOOH): 3.33	
CCc1nn(-c2ccc(-n3cncn3)c(C#N)c2)c(N)c1-c1ccc(Cl)cc1 [I-A-Q1-062]		log P (HCOOH) [2]: I-A-Q1-062: log P (HCOOH): 3.09

Structure (SMILES)	log P (HCOOH) (HCOOH)	other results
Cc1cc(-n2nc(C(F)(F)F)c(-c3cc(Cl)cc(Cl)c3)c2N)ccc1C(=O)NC(c1ccc(C(F)(F)F)cc1)C(F)(F)F (centres unmarked) [I-A-Q2-242]	I-A-Q2-242: log P (HCOOH): 5.29	
Cc1cc(-n2nc(C(F)(F)F)c(-c3cc(F)cc(Cl)c3)c2N)ccc1C(=O)NCc1ccccn1 [I-A-Q2-344]	I-A-Q2-344: log P (HCOOH): 2.84	
CC(C)NC(=O)c1ccc(-n2nc(C(F)(F)F)c(-c3ccc(Cl)cc3)c2N)cc1 [I-A-Q2-161]	I-A-Q2-161: log P (HCOOH): 3.37	
Nc1[nH]nc(C(F)(F)F)c1-c1ccc(F)c(F)c1 [IX-201]		log P (HCOOH) (HCOOH, compounds of the formula (IX), Table 11): IX-201: log P (HCOOH): 2.33
Cc1cnc(CNC(=O)c2ccc(-n3nc(C(F)(F)F)c(-c4cc(Cl)cc(Cl)c4)c3N)cc2C)c(C)c1 [I-A-Q2-038]	I-A-Q2-038: log P (HCOOH): 3.11	
Cc1cc(-n2nc(C(F)(F)F)c(-c3ccc(Cl)c(F)c3)c2N)ccc1C(=O)NCc1ccccn1 [I-A-Q2-353]	I-A-Q2-353: log P (HCOOH): 2.84	
Nc1c(-c2cccc(Br)c2)c(C(F)(F)F)nn1-c1ccc(C(=O)O)cc1 [I-A-Q4-091]		log P (HCOOH) [1]: I-A-Q4-091: log P (HCOOH): 3.29
CC(NC(=O)c1ccc(-n2nc(C(F)(F)F)c(-c3ccc(Cl)cc3)c2N)cc1)C(F)(F)F (centres unmarked) [I-A-Q2-153]	I-A-Q2-153: log P (HCOOH): 3.89	
CCNC(=O)c1ccc(-n2nc(C(F)(F)F)c(-c3cc(Cl)cc(Cl)c3)c2N)cc1C [I-A-Q2-270]	I-A-Q2-270: log P (HCOOH): 3.84	
Cc1cc(-n2nc(C(F)(F)Oc3cccc(Cl)c3)c(-c3cc(Cl)cc(C(F)(F)F)c3)c2N)ccc1C(=O)NCC(F)(F)C(F)F [I-A-Q2-297]	I-A-Q2-297: log P (HCOOH): 4.95	
Nc1c(-c2cc(Cl)cc(Cl)c2)c(C(F)(F)F)nn1-c1ccc(C(=O)NCC(F)F)cc1 [I-A-Q2-140]	I-A-Q2-140: log P (HCOOH): 3.93	
CC(NC(=O)c1ccc(-n2nc(C(F)(F)F)c(-c3ccccc3Cl)c2N)cc1)c1ccccc1 (centres unmarked) [I-A-Q2-081]	I-A-Q2-081: log P (HCOOH): 3.58	
Cc1cc(-n2nc(C(F)(F)F)c(-c3cc(Cl)cc(Cl)c3)c2N)ccc1C(=O)NC1CCCCC1 [I-A-Q2-222]	I-A-Q2-222: log P (HCOOH): 4.76	
Cc1cc(-n2nc(C(F)(F)F)c(-c3cc(Cl)cc(Cl)c3)c2N)ccc1C(=O)N(Cc1ccccn1)Cc1ccccn1 [I-A-Q2-199]	I-A-Q2-199: log P (HCOOH): 3.48	
Cc1nn(-c2ccc(-n3cncn3)c(C#N)c2)c(N)c1-c1ccc(F)cc1 [I-A-Q1-059]		log P (HCOOH) [2]: I-A-Q1-059: log P (HCOOH): 2.30
Cc1cc(-n2nc(C(F)(F)F)c(-c3cc(Cl)cc(Cl)c3)c2N)ccc1C(=O)NC(C)Cc1ccccn1 (centres unmarked) [I-A-Q2-065]	I-A-Q2-065: log P (HCOOH): 2.72	
Cc1cc(C)cc(-c2c(C(F)(F)F)nn(-c3ccc(C(=O)NC4CC4)cc3)c2N)c1 [I-A-Q2-179]	I-A-Q2-179: log P (HCOOH): 3.24	
CC(C)NC(=O)c1ccc(-n2nc(C(F)(F)F)c(-c3cc(Cl)cc(Cl)c3)c2N)cc1 [I-A-Q2-135]	I-A-Q2-135: log P (HCOOH): 4.06	
N#Cc1cc(-n2nc(-c3ccccc3)c(-c3ccc(Cl)cc3)c2N)ccc1-n1cncn1 [I-A-Q1-063]		log P (HCOOH) [2]: I-A-Q1-063: log P (HCOOH): 3.53
Nc1c(-c2cc(Cl)cc(Cl)c2)c(C(F)(F)F)nn1-c1ccc(C(=O)NCCCC(F)=C(F)F)cc1 [I-A-Q2-073]	I-A-Q2-073: log P (HCOOH): 4.35	
